Measured values from US10543212B2, “Substituted amines for treating cardiac diseases” (Cardurion Pharmaceuticals, LLC, priority 2017, dated 2020).

These compounds were tested against T1, Full-length, GST-tagged, human CaMKIIδ (Homo sapiens, UniProt Q13557) (assay: CaMKIIδ binding assay (TR-FRET with BODIPY-labeled probe ligand)). Settings: CaMKIIδ binding assay, results of Table 2.
T1 construct: Full-Length, Glutathione-S-Transferase(GST)-Tagged, Human CaMKIIδ was purchased from Carna Biosciences; purchased Carna Biosciences 02-111
T1 sequence (Q13557 1-478 isoform Q13557-12): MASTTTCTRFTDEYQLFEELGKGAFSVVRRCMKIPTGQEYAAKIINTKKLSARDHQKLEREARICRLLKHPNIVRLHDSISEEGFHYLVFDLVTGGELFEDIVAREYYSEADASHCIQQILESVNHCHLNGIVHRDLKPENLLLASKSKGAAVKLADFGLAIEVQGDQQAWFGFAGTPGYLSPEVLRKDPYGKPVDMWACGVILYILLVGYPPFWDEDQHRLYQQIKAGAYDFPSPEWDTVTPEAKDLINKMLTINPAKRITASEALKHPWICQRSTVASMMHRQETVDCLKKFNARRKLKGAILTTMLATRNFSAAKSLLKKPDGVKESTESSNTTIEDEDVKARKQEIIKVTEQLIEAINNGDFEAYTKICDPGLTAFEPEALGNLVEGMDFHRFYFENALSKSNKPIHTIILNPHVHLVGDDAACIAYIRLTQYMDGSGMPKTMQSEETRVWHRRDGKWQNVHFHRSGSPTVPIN
Method in brief: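 Compounds were tested as 4-fold, eight-point series for 1 hr at room temperature, and IC50 was obtained by logistic fitting against a 3 μM parent-compound control. Signal came from displacement of a 300 nM BODIPY ligand from 0.5 nM GST-CaMKIIδ, detected via Tb-anti-GST in calmodulin/Ca2+ (pH 7.6).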

For `C[C@@H](Cn1cnnn1)Oc1cc(-c2cnc(Nc3cc4c(cc3Cl)CCN(C3COC3)CC4)nc2)ccc1Cl` [Example 513, (S)-N-(5-(3-((1-(1H-tetrazol-1-yl)propan-2-yl)oxy)-4-chlorophenyl)pyrimidin-2-yl)-8-chloro-3-(oxetan-3-yl)-2,3,4,5-tetrahydro-1H-benzo[d]azepin-7-amine], which IC50 is on record?
The IC50 was < 0.01 µM.

`C[C@@H](Cn1cnnn1)Oc1cc(-c2cnc(Nc3cn(C4CCN(C5CCS(=O)(=O)CC5)CC4)nc3C(F)(F)F)nc2)ccc1Cl` [Example 565, (S)-4-(4-(4-((5-(3-((1-(1H-tetrazol-1-yl)propan-2-yl)oxy)-4-chlorophenyl)pyrimidin-2-yl)amino)-3-(trifluoromethyl)-1H-pyrazol-1-yl)piperidin-1-yl)tetrahydro-2H-thiopyran 1,1-dioxide] was tested. Which IC50 did it give?
The IC50 was < 0.01 µM.

With `C[C@@H](Cn1cnnn1)Oc1cc(-c2cnc(Nc3cc(N4CCN(C5CCOCC5)CC4)ncc3OC(F)(F)F)nc2)ccc1Cl` [Example 541, (S)-5-(3-((1-(1H-tetrazol-1-yl)propan-2-yl)oxy)-4-chlorophenyl)-N-(2-(4-(tetrahydro-2H-pyran-4-yl)piperazin-1-yl)-5-(trifluoromethoxy)pyridin-4-yl)pyrimidin-2-amine] as the compound, how does the IC50 read?
Its IC50 is < 0.01 µM.

Same assay, conditions: CaMKIIδ binding assay; activity class per Table 2

How did the IC50 turn out when `C[C@@H](Cn1cnnn1)Oc1cc(-c2cnc(Nc3cn([C@H]4C[C@H](NC5CCOCC5)C4)nc3OCC(F)(F)F)nc2)ccc1Cl` [Example 942, 5-(3-(((S)-1-(1H-tetrazol-1-yl)propan-2-yl)oxy)-4-chlorophenyl)-N-(1-(trans-3-((tetrahydro-2H-pyran-4-yl)amino)cyclobutyl)-3-(2,2,2-trifluoroethoxy)-1H-pyrazol-4-yl)pyrimidin-2-amine] was run?
Its IC50 is < 0.01 µM.

For `CC(C)c1nn(C2CC3(C2)CN(C(=O)OC(C)(C)C)C3)cc1Nc1ncc(-c2ccc(Cl)c(O[C@@H](C)Cn3cnnn3)c2)cn1` [Example 931, tert-butyl (S)-6-(4-((5-(3-((1-(1H-tetrazol-1-yl)propan-2-yl)oxy)-4-chlorophenyl)pyrimidin-2-yl)amino)-3-isopropyl-1H-pyrazol-1-yl)-2-azaspiro[3.3]heptane-2-carboxylate], which IC50 is on record?
The IC50 was 0.01 to 0.1 µM.

Which IC50 does the source give for `CCOC(=O)C(C)(C)n1cc(Nc2ncc(-c3ccc(Cl)c(O[C@@H](C)Cn4cnnn4)c3)cn2)c(OCC(F)(F)F)n1` [Example 885, ethyl (S)-2-(4-((5-(3-((1-(1H-tetrazol-1-yl)propan-2-yl)oxy)-4-chlorophenyl)pyrimidin-2-yl)amino)-3-(2,2,2-trifluoroethoxy)-1H-pyrazol-1-yl)-2-methylpropanoate] here?
Its IC50 is < 0.01 µM.

`C[C@@H](Cn1cnnn1)Oc1cc(-c2cnc(Nc3cn(C4CC5(C4)CN(C(=O)OC(C)(C)C)C5)nc3OCC(F)(F)F)nc2)ccc1C(F)F` [Example 948, tert-butyl (S)-6-(4-((5-(3-((1-(1H-tetrazol-1-yl)propan-2-yl)oxy)-4-(difluoromethyl)phenyl)pyrimidin-2-yl)amino)-3-(2,2,2-trifluoroethoxy)-1H-pyrazol-1-yl)-2-azaspiro[3.3]heptane-2-carboxylate] was tested. Which IC50 did it give?
The IC50 was ≥ 0.1 µM.

`CC(=O)OC(C)(C)CN1CC2(CC(n3cc(Nc4ncc(-c5ccc(Cl)c(O[C@@H](C)Cn6cnnn6)c5)cn4)c(C(F)(F)F)n3)C2)C1` [Example 974, (S)-1-(6-(4-((5-(3-((1-(1H-tetrazol-1-yl)propan-2-yl)oxy)-4-chlorophenyl)pyrimidin-2-yl)amino)-3-(trifluoromethyl)-1H-pyrazol-1-yl)-2-azaspiro[3.3]heptan-2-yl)-2-methylpropan-2-yl acetate] was tested. Which IC50 did it give?
The IC50 was < 0.01 µM.

How did the IC50 turn out when `C[C@@H](Cn1cnnn1)Oc1cc(-c2cnc(Nc3cn(CC4(O)CCNCC4)nc3C(F)(F)F)nc2)ccc1Cl` [Example 882, (S)-4-((4-((5-(3-((1-(1H-tetrazol-1-yl)propan-2-yl)oxy)-4-chlorophenyl)pyrimidin-2-yl)amino)-3-(trifluoromethyl)-1H-pyrazol-1-yl)methyl)piperidin-4-ol] was run?
The IC50 was < 0.01 µM.

`COCCN1CC2(CC(n3cc(Nc4ncc(-c5ccc(Cl)c(O[C@@H](C)Cn6cnnn6)c5)cn4)c(C(C)C)n3)C2)C1` [Example 1012, (S)-5-(3-((1-(1H-tetrazol-1-yl)propan-2-yl)oxy)-4-chlorophenyl)-N-(3-isopropyl-1-(2-(2-methoxyethyl)-2-azaspiro[3.3]heptan-6-yl)-1H-pyrazol-4-yl)pyrimidin-2-amine] was tested. Which IC50 did it give?
The IC50 was < 0.01 µM.

Same assay, conditions: Table 2; CaMKIIδ binding assay, activity given as class A/B/C

Which IC50 does the source give for `Cc1cc(Nc2ncc(-c3ccc(Cl)c(O[C@@H](C)Cn4cnnn4)c3)cn2)n(C(C)C)n1` [Example 742, (S)-5-(3-((1-(1H-tetrazol-1-yl)propan-2-yl)oxy)-4-chlorophenyl)-N-(1-isopropyl-3-methyl-1H-pyrazol-5-yl)pyrimidin-2-amine] here?
The IC50 was 0.01 to 0.1 µM.

How did the IC50 turn out when `CC(C)N1CC2(CC(n3cc(Nc4ncc(-c5ccc(Cl)c(O[C@@H](C)Cn6cnnn6)c5)cn4)c(OCC(F)(F)F)n3)C2)C1` [Example 815, (S)-5-(3-((1-(1H-tetrazol-1-yl)propan-2-yl)oxy)-4-chlorophenyl)-N-(1-(2-isopropyl-2-azaspiro[3.3]heptan-6-yl)-3-(2,2,2-trifluoroethoxy)-1H-pyrazol-4-yl)pyrimidin-2-amine] was run?
The IC50 was < 0.01 µM.

`C[C@@H](Cn1cnnn1)Oc1cc(-c2cnc(Nc3cn([C@H]4CC[C@@H](N5CCOCC5)CC4)nc3OC3COC3)nc2)ccc1Cl` [Example 820, 5-(3-(((S)-1-(1H-tetrazol-1-yl)propan-2-yl)oxy)-4-chlorophenyl)-N-(1-(cis-4-morpholinocyclohexyl)-3-(oxetan-3-yloxy)-1H-pyrazol-4-yl)pyrimidin-2-amine] was tested. Which IC50 did it give?
Its IC50 is < 0.01 µM.

`C[C@@H](Cn1cnnn1)Oc1cc(-c2cnc(Nc3cn([C@H]4CC[C@H](N5CCOCC5)CC4)nc3OC[C@@H]3CC3(F)F)nc2)ccc1Cl` [Example 869] was tested. Which IC50 did it give?
The IC50 was < 0.01 µM.

How did the IC50 turn out when `C[C@@H](Cn1cnnn1)Oc1cc(-c2cnc(Nc3cn([C@H]4C[C@@H](N5CCOCC5)C4)nc3OCC(F)F)nc2)ccc1Cl` [Example 849, (S)-5-(3-((1-(1H-tetrazol-1-yl)propan-2-yl)oxy)-4-chlorophenyl)-N-(3-(2,2-difluoroethoxy)-1-(cis-3-morpholinocyclobutyl)-1H-pyrazol-4-yl)pyrimidin-2-amine] was run?
The IC50 was < 0.01 µM.

Same assay, conditions: Table 2; activity class for CaMKIIδ

Which IC50 does the source give for `C[C@@H](Cn1cnnn1)Oc1cc(-c2cnc(Nc3cn(Cc4nc5ccccc5[nH]4)nc3C(F)(F)F)nc2)ccc1Cl` [Example 658, (S)-N-(1-((1H-benzo[d]imidazol-2-yl)methyl)-3-(trifluoromethyl)-1H-pyrazol-4-yl)-5-(3-((1-(1H-tetrazol-1-yl)propan-2-yl)oxy)-4-chlorophenyl)pyrimidin-2-amine] here?
The IC50 was 0.01 to 0.1 µM.

Which IC50 does the source give for `COc1cc(N2CCN(CC3COC3)CC2)cnc1Nc1ncc(-c2ccc(Cl)c(O[C@@H](C)Cn3cnnn3)c2)cn1` [Example 648, (S)-5-(3-((1-(1H-tetrazol-1-yl)propan-2-yl)oxy)-4-chlorophenyl)-N-(3-methoxy-5-(4-(oxetan-3-ylmethyl)piperazin-1-yl)pyridin-2-yl)pyrimidin-2-amine] here?
Its IC50 is 0.01 to 0.1 µM.

With `Cc1c(Nc2ncc(-c3ccc(Cl)c(O[C@@H](C)Cn4cnnn4)c3)cn2)cnn1C` [Example 731, (S)-5-(3-((1-(1H-tetrazol-1-yl)propan-2-yl)oxy)-4-chlorophenyl)-N-(1,5-dimethyl-1H-pyrazol-4-yl)pyrimidin-2-amine] as the compound, how does the IC50 read?
Its IC50 is 0.01 to 0.1 µM.

How did the IC50 turn out when `C[C@@H](Cn1cnnn1)Oc1cc(-c2cnc(Nc3cn(C4CCN(C5CCOCC5)CC4)nc3OC(F)F)nc2)ccc1Cl` [Example 664, (S)-5-(3-((1-(1H-tetrazol-1-yl)propan-2-yl)oxy)-4-chlorophenyl)-N-(3-(difluoromethoxy)-1-(1-(tetrahydro-2H-pyran-4-yl)piperidin-4-yl)-1H-pyrazol-4-yl)pyrimidin-2-amine] was run?
The IC50 was < 0.01 µM.

For `COc1cc(N2CCN(C3CCOCC3)CC2)cnc1Nc1ncc(-c2ccc(Cl)c(O[C@@H](C)Cn3cnnn3)c2)cn1` [Example 647, (S)-5-(3-((1-(1H-tetrazol-1-yl)propan-2-yl)oxy)-4-chlorophenyl)-N-(3-methoxy-5-(4-(tetrahydro-2H-pyran-4-yl)piperazin-1-yl)pyridin-2-yl)pyrimidin-2-amine], which IC50 is on record?
The IC50 was 0.01 to 0.1 µM.

Which IC50 does the source give for `COc1nc(N2CCN(C(=O)OC(C)(C)C)CC2)ccc1Nc1ncc(-c2ccc(Cl)c(O[C@@H](C)Cn3cnnn3)c2)cn1` [Example 613, tert-butyl (S)-4-(5-((5-(3-((1-(1H-tetrazol-1-yl)propan-2-yl)oxy)-4-chlorophenyl)pyrimidin-2-yl)amino)-6-methoxypyridin-2-yl)piperazine-1-carboxylate] here?
The IC50 was ≥ 0.1 µM.

For `C[C@@H](Cn1cnnn1)Oc1cc(-c2cnc(Nc3cn(CC4CCCN(C)C4)nc3C(F)(F)F)nc2)ccc1Cl` (stereo partly drawn) [Example 635, 5-(3-(((S)-1-(1H-tetrazol-1-yl)propan-2-yl)oxy)-4-chlorophenyl)-N-(1-((1-methylpiperidin-3-yl)methyl)-3-(trifluoromethyl)-1H-pyrazol-4-yl)pyrimidin-2-amine], which IC50 is on record?
The IC50 was 0.01 to 0.1 µM.

How did the IC50 turn out when `C[C@@H](Cn1cnnn1)Oc1cc(-c2cnc(Nc3cn(C4C[C@@H]5CC[C@H]4C5)nc3C(F)(F)F)nc2)ccc1Cl` (stereo partly drawn) [Example 717, 5-(3-(((S)-1-(1H-tetrazol-1-yl)propan-2-yl)oxy)-4-chlorophenyl)-N-(1-((1S,4R)-bicyclo[2.2.1]heptan-2-yl)-3-(trifluoromethyl)-1H-pyrazol-4-yl)pyrimidin-2-amine] was run?
The IC50 was ≥ 0.1 µM.

`C[C@@H](Cn1cnnn1)Oc1cc(-c2cnc(Nc3cn(C4CCCCNC4=O)nc3C(F)(F)F)nc2)ccc1Cl` (stereo partly drawn) [Example 629, 3-(4-((5-(3-(((S)-1-(1H-tetrazol-1-yl)propan-2-yl)oxy)-4-chlorophenyl)pyrimidin-2-yl)amino)-3-(trifluoromethyl)-1H-pyrazol-1-yl)azepan-2-one] was tested. Which IC50 did it give?
The IC50 was < 0.01 µM.

`C[C@@H](Cn1cnnn1)Oc1cc(-c2cnc(Nc3c[nH]nc3C(F)(F)F)nc2)ccc1Cl` [Example 628, (S)-5-(3-((1-(1H-tetrazol-1-yl)propan-2-yl)oxy)-4-chlorophenyl)-N-(3-(trifluoromethyl)-1H-pyrazol-4-yl)pyrimidin-2-amine] was tested. Which IC50 did it give?
Its IC50 is 0.01 to 0.1 µM.
